Like-named read-outs stand apart in the source and are kept apart here.
Experiments:
[1] = system: wild-type (wt) Salmonella enterica serovar Typhimurium strain SL1344; details: for MIC: non-cation-adjusted MHB, 37°C, 24 h
Procedure: (§1) MIC values were determined by broth microdilution according to standard protocols with a few modifications ([26]). An overnight bacterial cell culture, supplemented with the appropriate antibiotic when needed, was diluted 1:100 in fresh MHB and grown to OD600 0.5. The obtained culture was diluted to ∼10^5 cfu/ml or 10^6 cfu/ml, as indicated, in non-cation-adjusted MHB. Subsequently, 190 μl bacterial solution was dispensed into a 96-well plate (Thermo Fisher Scientific) along with 10 μl of a 20x PPNA, PNA or peptide working solution. Growth was monitored by measuring the OD at 600 nm every 20 min in a Synergy H1 plate reader (Biotek) with continuous double-orbital shaking (237 cpm) at 37°C for 24 h.

SL1344 ΔphoP = assay: MIC determination by broth microdilution; format: cell-based, Salmonella enterica serovar Typhimurium; details: Table 3; ∼10^5 cfu/ml; three biological replicates
Procedure: as §1
Fig. S4. Growth kinetics for MIC determ ination of 10^5 cfu/m l Salmonella wt (SL1344) and its isogenic ∆phoP m utant in the pres ence of var ying concentrations of the indicated conjugates. ( A) KFF-acpP, KFF-acpP-scram bled (scr) or KFF peptide in serial dilutions from 10 µM to 0.3 µM. ( B) RXR- acpP, RXR-acpP-scram bled (scr) or RXR peptide in seria l d ilutions f rom 10 µM to 0. 3 µM. ( C) T at-acpP, T at-acpP-scrambled (scr) or T at peptide in serial dilutions from 20 µM to 0.6 µM. D ata represent the average of three biological replicates, error bars indicate standard er ror of the m ean […]
(§2) (1 picture or pasted object on this page, not shown here)

[2] = system: wild-type Salmonella enterica serovar Typhimurium strain LT2; assay: MIC determination by broth microdilution; format: cell-based; details: Table 3; ∼10^5 cfu/ml; three biological replicates
Procedure: as §1
(§3) Fig. S5. Growth k inetics for MIC determ ination of 10^5 cfu/m l Salmonella wt (LT 2) and its isogenic
(§4) Pho PC m utant in the presen ce of var ying co ncentra tio n s of the in dicat ed co njugat e s. ( A) KFF-acpP,
(§5) KFF-acpP-scram bled (scr) or KFF peptide in s erial dilutions from 10 µM to 0.3 µM. ( B) RXR- acpP,
(§6) RXR- acpP-scram bled (scr) or RXR peptide in serial dilutions from 10 µM to 0.3 µ M. ( C) T at-acpP,
(§7) T at-acpP-scram bled (scr) or T at peptide in serial dilutions from 20 µM to 0.6 µM. Data represent
(§8) the average of three biological replicates, error bars indicate standard error of the m ean (SEM).
as §2

LT2 PhoP^C = assay: MIC determination by broth microdilution; format: cell-based, Salmonella enterica serovar Typhimurium; details: Table 3; ∼10^5 cfu/ml; three biological replicates
Procedure: as §1, §3, §4, §5, §6, §7, §8, §2

[3] = system: Salmonella gene expression; assay: RNA-seq transcriptomic response; format: cell-based, Salmonella enterica serovar Typhimurium; details: 15 min
Procedure: Bacterial overnight cultures were diluted 1:100 in fresh MHB and grown to OD600 0.5. The obtained cultures were diluted to ∼10^6 cfu/ml in non-cation-adjusted MHB. Afterward, the bacterial solution was transferred into low-binding 5 ml tubes (LABsolute) along with the 20× PNA, peptide or PPNA solution. The final concentrations were 5 μM for KFF- and RXR-PNAs, and 10 μM for Tat-PNAs. Equimolar concentrations were used for the respective peptide control conditions. As a negative control, cells were treated with the respective volume of sterile nuclease-free water, which was used as solvent for the test compounds.
A time kinetic was performed for subsequent northern blot analysis (5, 10, 15 min), in which the reaction was stopped at the indicated time points by using RNAprotect Bacteria (Qiagen). For RNA-seq analyses, adding RNAprotect Bacteria at 15 min post treatment stopped the reactions with the indicated PPNA constructs or the respective peptide. After vortexing for 5 s, the samples were incubated at room temperature for 10 min, followed by cell pelleting at 4°C and 21 100 ×g for 20 min. Pellets were directly used for RNA isolation or stored at –20°C (<2 days) until further processing. RNA was purified from bacterial pellets using isolation protocol #3, as described above (0.5 mg/ml lysozyme, miRNeasy).
DNase treatment, cDNA library preparation and sequencing was conducted at Vertis (Munich, Germany). The RNA samples were first fragmented using ultrasound (4 pulses of 30 s each at 4°C). Then, an oligonucleotide adapter was ligated to the 3′ ends of the RNA molecules. First-strand cDNA synthesis was performed using M-MLV reverse transcriptase and the 3′ adapter as primer. The first-strand cDNA was purified and the 5′ Illumina TruSeq sequencing adapter was ligated to the 3′ end of the antisense cDNA. The resulting cDNA was PCR-amplified to about 10–20 ng/μl using a high fidelity DNA polymerase. The cDNA was purified using the Agencourt AMPure XP kit (Beckman Coulter Genomics) and was analyzed by capillary electrophoresis. For Illumina NextSeq sequencing, the samples were pooled in approximately equimolar amounts. The cDNA pool was sequenced on an Illumina NextSeq 500 system using 75 bp read length.
Reads from the RNA-Seq experiments were trimmed, filtered and mapped against the S. enterica subsp. enterica serovar Typhimurium SL1344 reference genome and the three plasmids pSLT_SL1344, pCol1B9_SL1344 (other name is p2), and pRSF1010_SL1344 ([19]). BBDuk was applied to trim bases with a Phred quality score of <10, and adapters were removed simultaneously. Reads were then mapped against the reference genome using BBMap (v38.84) and then assigned genomic features, including both coding sequences and annotated sRNAs ([19],[29]) using the featureCounts method of the Subread (2.0.1) package.
All downstream analysis was performed using packages from the R/Bioconductor project. The raw read counts were imported and analyzed with edgeR (v3.30.0). Each set of PNA-peptide conjugate experiments (i.e. experiments with KFF, RXR and Tat peptide) was analyzed simultaneously. Genes with less than 14.6 counts per million (CPM) in at least three libraries were filtered. This cutoff value was calculated using 10/L, where L is the library size of the smallest sample (minimum library size) in millions.
Raw read counts were normalized by trimmed mean of M values (TMM) normalization. Differential expression analysis was conducted using edgeR ([31]). Estimation of quasi-likelihood (QL) dispersions was then run with the […] function. Then contrasts between all samples versus the water controls were created as input for the glmQLTest function.
Genes with an absolute fold change >2 and an adjusted P-value (Benjamini–Hochberg, ([32])) <0.001 were considered differentially expressed.

[4] = edgeR, versus water, 5 μM KFF-/RXR-constructs, 10 μM Tat-constructs, triplicates, listed as PNAKFFscr
[5] = edgeR, versus water, 5 μM, triplicates

For KFFKFFKFFK [KFF-acpP-scr], the “MIC” value ([1]; Table 1, ∼10^5 cfu/ml, lowest concentration with OD600 < 0.1) was greater than 10 µM, the “MIC” value ([1]; Table 2, ∼10^6 cfu/ml, performed three times) was greater than 10 µM and the “MIC in μM, SL1344 wt” value ([1]; Table 3, ∼10^5 cfu/ml, three biological replicates) was greater than 10 µM. For the same sequence, the “MIC in μM, SL1344 ΔphoP” value (SL1344 ΔphoP) was no less than 10 µM, the “MIC in μM, LT2 wt” value [2] was greater than 10 µM and the “MIC in μM, LT2 PhoP^C” value (LT2 PhoP^C) was greater than 10 µM. For the same sequence, the “number of differentially expressed genes” value ([3]; absolute fold change >2 and FDR-adjusted P-value <0.001 versus water, 5 μM KFF-/RXR-constructs, 10 μM Tat-constructs) was 10, the “upregulation of AmgR transcript levels” value ([3]; RNA-seq, 5 μM, listed as KFF-acpP-scrambled) was roughly 2 fold and the “logFC mig-14” value [3, 4] was 1.6196. For the same sequence, the “logFC virK” value [3, 4] was 2.3333, the “logFC SL1344_1602” value [3, 5] was 1.058 and the logFC cdh-a [3, 5] was 0.9654. The “logFC yfbE” value [3, 5] was 0.9577.

From publication PMC8096218, “Global RNA profiles show target selectivity and physiological effects of peptide-delivered antisense antibiotics” (Nucleic Acids Research, 2021)
